# According to patent publication US20140113876A1, “BIOMARKERS FOR ASSESSING TREATMENT OF SIALIC ACID DEFICIENCY DISEASES AND CONDITIONS” (ULTRAGENYX PHARMACEUTICAL INC., priority 2012, published 2014):
# Tested on: HIBM patients
# Test: Phase 2 clinical trial: change in serum biomarker levels between week 0 and week 24 per dosage group (Human Discovery MAP250+ v2.0 immunoassay)
# Type: in vivo
# Experimental: Forty-seven (47) HIBM patient serum samples collected at week 24 from phase 2 study were tested using the Human Discovery MAP250+ v2.0 quantitative immunoassay system developed by Myriad RBM. The results were compared to the serum samples of the same 47 HIBM patients collected at week 0 (baseline) which were conducted earlier with the same immunoassay system.
# Patients were unblinded and the results were organized into the 3 assigned dosage groups, placebo (n=14), 3 g/day (n=17) and 6 g/day (n=14). The major focus of the analysis was 1) to assess changes (delta, A) in levels of analytes between baseline and week 24 in each dosage group, 2) whether the changes correlate to dosage levels.
# Analytes were excluded from analysis if […] of the HIBM patient samples were below least detectable dose (LDD). Within each dosage group, individual values with >5× difference to the mean of the dosage group were considered as outliers and thus removed from analysis.
# [1] = placebo, 3 g/day, 6 g/day, week 0 to week 24, FIG. 4
compound,measurement,setting,value
"CC(=O)N[C@H]1[C@H]([C@H](O)[C@H](O)CO)OC(O)(C(=O)O)C[C@@H]1O (some centres unmarked) [Sialic Acid, 5-N-acetylneuraminic acid]","serum level of LAP TGF-b1, change towards normal level compared to placebo","6 g/day dosage group, week 0 to week 24, FIG. 2",declined at a faster rate
same,"serum level of NCAM, change towards normal level compared to placebo","6 g/day dosage group, week 0 to week 24, FIG. 3",increased at a faster rate
same,change in the levels of the eleven analytes of Table 14 compared to the placebo group,"6 g/day group, week 24",more favorable change
same,"slope of delta from placebo to higher dosage group, analytes with baseline levels higher than normal controls (PAI-1, LGL, myoglobin, ENA-78, TGfb1, M-CSF1, MMP-9, CgA)",[1],downward trend
same,"slope of delta from placebo to higher dosage group, analytes with baseline levels lower than normal controls (NCAM, ErbB3)",[1],upward trend
